Test results reported in US7723384B2, “Keto lactam compounds and use thereof” (Abbott GmbH & Co. KG., priority 2003, dated 2010).
Where a name gives a salt, the structure may show the parent alone.

How the values were obtained:
[1] = molecular target: T1, human dopamine D2L receptors (long isoform) (Homo sapiens, UniProt P14416); experiment: Dopamine D2L receptor binding, displacement of [125I]-iodospiperone; conditions: ratio Ki(D2L)/Ki(D3); HEK-293 membranes with human D2L and D3 receptors
T1 construct: expressed in transfected cells; membranes)
T1 sequence (P14416 whole entry, canonical isoform): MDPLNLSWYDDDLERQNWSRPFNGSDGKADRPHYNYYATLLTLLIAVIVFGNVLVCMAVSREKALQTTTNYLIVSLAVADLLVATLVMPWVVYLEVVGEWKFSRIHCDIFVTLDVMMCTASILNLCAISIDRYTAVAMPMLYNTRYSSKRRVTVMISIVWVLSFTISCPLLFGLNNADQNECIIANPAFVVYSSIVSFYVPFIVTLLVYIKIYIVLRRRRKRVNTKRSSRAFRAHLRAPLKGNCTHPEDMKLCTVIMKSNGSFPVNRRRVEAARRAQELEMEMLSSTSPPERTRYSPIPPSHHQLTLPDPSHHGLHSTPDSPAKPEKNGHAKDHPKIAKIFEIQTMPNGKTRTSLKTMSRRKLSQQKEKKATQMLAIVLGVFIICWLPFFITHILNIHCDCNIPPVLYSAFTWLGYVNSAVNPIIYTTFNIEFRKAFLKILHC
Experimental: (§1) The substance to be tested was dissolved either in methanol/Chremophor® (BASF-AG) or in dimethyl sulfoxide and then diluted with water to the desired concentration.
II. Dopamine D2L Receptor:
(§2) Triplicate mixtures were carried out.
The incubation buffer comprised 50 mM Tris, 120 mM NaCl, 5 mM KCl, 2 mM CaCl2, 2 mM MgCl2 and 0.1% bovine serum albumin. The buffer was adjusted to pH 7.4 with HCl.
(§3) III. Measurement and Evaluation:
(§4) After incubation at 25° C. for 60 minutes, the mixtures were filtered under vacuum through Whatman GF/B glass fiber filters using a cell harvester. The filters were transferred by a filter transfer system into scintillation vials. After addition of 4 ml of Ultima Gold® (Packard), the samples were shaken for one hour and then the radioactivity was counted in a beta counter (Packard, Tricarb 2000 or 2200CA). The cp values were converted into dpm by means of a standard quench series with the aid of the instrument's own program.
(§5) Evaluation of the inhibition plots took place by iterative nonlinear regression analysis using the Statistical Analysis System (SAS) similar to the “LIGAND” program described by Munson and Rodbard.

[2] = molecular target: T2, human dopamine D3 receptors (Homo sapiens, UniProt P35462); experiment: Dopamine D3 receptor binding, displacement of [125I]-iodosulpride; conditions: membranes from HEK-293 cells with stably expressed human D3 receptors, 0.1 nM [125I]-iodosulpride
T2 construct: expressed in transfected cells; membranes)
T2 sequence (P35462 whole entry): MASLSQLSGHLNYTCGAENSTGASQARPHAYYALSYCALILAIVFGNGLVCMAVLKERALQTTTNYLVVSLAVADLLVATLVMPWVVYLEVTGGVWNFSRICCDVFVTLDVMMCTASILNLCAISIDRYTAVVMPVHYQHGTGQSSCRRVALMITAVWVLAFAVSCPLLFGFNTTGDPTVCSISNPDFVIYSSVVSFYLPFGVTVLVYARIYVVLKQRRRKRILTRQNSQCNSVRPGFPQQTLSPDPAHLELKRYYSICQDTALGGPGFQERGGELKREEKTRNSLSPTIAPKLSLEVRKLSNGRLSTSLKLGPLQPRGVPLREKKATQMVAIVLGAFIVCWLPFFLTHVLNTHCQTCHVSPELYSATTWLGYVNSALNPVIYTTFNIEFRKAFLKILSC
Experimental: as §1, §2
The incubation buffer comprised 50 mM Tris, 120 mM NaCl, 5 mM KCl, 2 mM CaCl2, 2 mM MgCl2 and 0.1% bovine serum albumin, 10 μM quinolone, 0.1% ascorbic acid (prepared fresh each day). The buffer was adjusted to pH 7.4 with HCl.
as §3, §4, §5

For CC(C)(C)c1nc(N2CCN(C/C=C/CN3C(=O)CCC(=O)c4ccccc43)CC2)cc(C(F)(F)F)n1 [Example 4, 1-((2E)-4-{4-[2-tert-Butyl-6-(trifluoromethyl)pyrimidin-4-yl]piperazin-1-yl}but-2-enyl)-3,4-dihydro-1H-1-benzazepine-2,5-dione], which “Selectivity vs. D2L (Ki(D2L)/Ki(D3))” value [1] is on record?
The value was 155.

What about the Ki [2] of the same compound?
Its Ki is 1.74 nM.

Which results are given for COc1cc2c(cc1OC)N(CCCCN1CCN(c3cc(C(F)(F)F)nc(C(C)(C)C)n3)CC1)C(=O)CCC2=O [Example 6, 1-(4-{4-[2-tert-Butyl-6-(trifluoromethyl)pyrimidin-4-yl]piperazin-1-yl}butyl)-7,8-dimethoxy-3,4-dihydro-1H-1-benzazepine-2,5-dione]?
Selectivity vs. D2L (Ki(D2L)/Ki(D3)) [1]: 104; Ki [2]: 4.5 nM

How did the “Selectivity vs. D2L (Ki(D2L)/Ki(D3))” value [1] turn out when CCCc1cc(N2CCN(CCCCN3C(=O)CCC(=O)c4ccccc43)CC2)nc(C(C)(C)C)n1.Cl [Example 7, 1-{4-[4-(2-tert-Butyl-6-propylpyrimidin-4-yl)piperazin-1-yl]butyl}-3,4-dihydro-1H-1-benzazepine-2,5-dione hydrochloride] was run?
Its value is 118.

What about the Ki [2] of the same compound?
The Ki was 1.33 nM.

For CC(C)(C)c1cc(N2CCN(CCCCN3C(=O)CCC(=O)c4ccccc43)CC2)nc(C(C)(C)C)n1.Cl [Example 10, 1-{4-[4-(2,6-Di-tert-butylpyrimidin-4-yl)piperazin-1-yl]butyl}-3,4-dihydro-1H-1-benzazepine-2,5-dione hydrochloride], which “Selectivity vs. D2L (Ki(D2L)/Ki(D3))” value [1] is on record?
Its value is 74.

And the Ki [2]?
The Ki was 1.24 nM.

What does the source list for CC(C)(C)c1nc(C2CC2)cc(N2CCN(CCCCN3C(=O)CCC(=O)c4ccccc43)CC2)n1 [Example 16, 1-{4-[4-(2-tert-Butyl-6-cyclopropylpyrimidin-4-yl)piperazin-1-yl]butyl}-3,4-dihydro-1H-benzo[b]azepine-2,5-dione]?
Selectivity vs. D2L (Ki(D2L)/Ki(D3)) [1]: 62; Ki [2]: 0.96 nM

O=C1CCC(=O)N(CCCCN2CCN(c3cc(Cl)cc(Cl)c3)CC2)c2ccccc21 [Example 86, 1-{4-[4-(3,5-Dichlorophenyl)-2,5-piperazin-1-yl]butyl}-3,4-dihydro-1H-benzo[b]azepine-2,5-dione fumarate] was tested. Which “Selectivity vs. D2L (Ki(D2L)/Ki(D3))” value [1] did it give?
The value was 56.

And the Ki [2]?
The Ki was 2 nM.

What does the source list for O=C(O)/C=C/C(=O)O.O=C1CCC(=O)N(CCCCN2CCN(c3cc(C(F)(F)F)cc(C(F)(F)F)c3)CC2)c2ccccc21 [Example 87, 1-{4-[4-(3,5-Bis(trifluoromethyl)phenyl)piperazin-1-yl]butyl}-3,4-dihydro-1H-benzo[b]azepine-2,5-dione fumarate]?
Selectivity vs. D2L (Ki(D2L)/Ki(D3)) [1]: 129; Ki [2]: 7.4 nM
